Measured values published in ChEMBL document CHEMBL1141641, “SAR studies of capsazepinoid bronchodilators. Part 1: The importance of the catechol moiety and aspects of the B-ring structure” (Bioorg Med Chem, 2008).

Organism: Homo sapiens
Test: Bronchodilation activity against leukotriene D4-induced constriction in human lung small airways assessed as remaining contraction at 10 uM after 1.5 hrs relative to control
Assay type: functional

| Compound | Remaining contraction [%] |
| --- | --- |
| Oc1ccc2c(c1)CCCN(C(=S)NCCc1ccc(Cl)cc1)C2 | 53 |
| CN(Cc1ccc(O)c(O)c1)C(=S)NCCc1ccc(Cl)cc1 | 69 |
| Oc1ccc2c(c1)CN(C(=S)NCCc1ccc(Cl)cc1)CCC2 | 40 |
| Oc1cc2c(cc1O)CN(C(=S)NCCc1ccc(Cl)cc1)CCC2 | 55 |
| Oc1ccc2c(c1)CN(C(=S)NCCc1ccc(Cl)cc1)CC2 | 75 |
| Oc1cccc2c1CN(C(=S)NCCc1ccc(Cl)cc1)CC2 | 73 |
| CC1c2cc(O)c(O)cc2CCN1C(=S)NCCc1ccc(Cl)cc1 (centres undefined) | 58 |
| Oc1cccc2c1CN(C(=S)NCCc1ccc(Cl)cc1)C2 | 82 |
| Oc1ccc(CNC(=S)NCCc2ccc(Cl)cc2)cc1O | 69 |
| Oc1ccc(CCNC(=S)NCCc2ccc(Cl)cc2)cc1O | 72 |
| Oc1cccc2c1CCN(C(=S)NCCc1ccc(Cl)cc1)C2 | 48 |
| Oc1cc2c(cc1O)CN(C(=S)NCCc1ccc(Cl)cc1)CC2 | 36 |
| Oc1cc2c(cc1O)CCN(C(=S)NCCc1ccc(Cl)cc1)CC2 | 54 |
| Oc1cc2c(cc1O)CN(C(=S)NCCc1ccc(Cl)cc1)C2 | 56 |
| CC1Cc2cc(O)c(O)cc2CN1C(=S)NCCc1ccc(Cl)cc1 (centres undefined) | 70 |
| Oc1ccc2c(c1O)CCN(C(=S)NCCc1ccc(Cl)cc1)C2 | 63 |
| Oc1cc2c(cc1O)C(Cc1ccccc1)N(C(=S)NCCc1ccc(Cl)cc1)CC2 (centres undefined) | 79 |
| Oc1ccc2c(c1)CN(C(=S)NCCc1ccc(Cl)cc1)C2 | 41 |
| Oc1ccc2c(c1)CCN(C(=S)NCCc1ccc(Cl)cc1)C2 | 52 |
